In patent publication US9409914B2, “Triazolo[4,5-d]pyrimidine derivatives” (Merck Patent GmbH, priority 2012, dated 2016):

Molecular target: GCN2 (Homo sapiens, UniProt Q9P2K8)
Assay: GCN2 enzyme assay (TR-FRET Lanthascreen, phosphorylation of GFP-eIF2alpha)
Assay type: biochemical
Conditions: 10 μM ATP, 80 nM GFP-eIF2alpha, 30 nM GCN2, room temperature
Description: GCN2: Assay principle & conditions
This assay can quantificate the activity of the serin kinase GCN2 (general control non-derepressible-2).
This kinase is involved in the stress metabolism of cells. It is activated upon starvation (amino acid depletion). Its natural substrate is eIF2a (eukaryotic initiation factor 2 alpha subunit), a translation factor, which gets activated (phosphorylated) by GCN2 in case of an amino acid bottleneck in the cells. This in turn leads to a halt of the protein synthesis. Inhibition of GCN2 results in stopping this mechanism: The cell can not stop protein production upon “starvation” stress.
The assay is run in two steps: the enzymatic reaction and the detection step. In the first step GCN2 is incubated with 10 μM ATP and 80 nM of the GFP-labelled substrate eIF2alpha at room temperature.
The enzymatic reaction is stopped by addition of EDTA. The amount of phosphorylated eIF2alpha is determined by TR-FRET (Lanthascreen): A complex is formed consisting of antibody and GFP labelled phospho-eIF2a, which allows a FRET upon exitation at 340 nm.
The GCN2-activity is directly proportional to the ratio of fluorescence units at the emission wavelengthh 520 nm (phosphopeptide-sensitive wavelength=emission of GFP) to the units at 495 nm (reference wavelength=emission of Terbium-chelate).
Final Concentrations in the Enzymatic Reaction

Chain of GCN2 (Q9P2K8 whole entry, species assumed): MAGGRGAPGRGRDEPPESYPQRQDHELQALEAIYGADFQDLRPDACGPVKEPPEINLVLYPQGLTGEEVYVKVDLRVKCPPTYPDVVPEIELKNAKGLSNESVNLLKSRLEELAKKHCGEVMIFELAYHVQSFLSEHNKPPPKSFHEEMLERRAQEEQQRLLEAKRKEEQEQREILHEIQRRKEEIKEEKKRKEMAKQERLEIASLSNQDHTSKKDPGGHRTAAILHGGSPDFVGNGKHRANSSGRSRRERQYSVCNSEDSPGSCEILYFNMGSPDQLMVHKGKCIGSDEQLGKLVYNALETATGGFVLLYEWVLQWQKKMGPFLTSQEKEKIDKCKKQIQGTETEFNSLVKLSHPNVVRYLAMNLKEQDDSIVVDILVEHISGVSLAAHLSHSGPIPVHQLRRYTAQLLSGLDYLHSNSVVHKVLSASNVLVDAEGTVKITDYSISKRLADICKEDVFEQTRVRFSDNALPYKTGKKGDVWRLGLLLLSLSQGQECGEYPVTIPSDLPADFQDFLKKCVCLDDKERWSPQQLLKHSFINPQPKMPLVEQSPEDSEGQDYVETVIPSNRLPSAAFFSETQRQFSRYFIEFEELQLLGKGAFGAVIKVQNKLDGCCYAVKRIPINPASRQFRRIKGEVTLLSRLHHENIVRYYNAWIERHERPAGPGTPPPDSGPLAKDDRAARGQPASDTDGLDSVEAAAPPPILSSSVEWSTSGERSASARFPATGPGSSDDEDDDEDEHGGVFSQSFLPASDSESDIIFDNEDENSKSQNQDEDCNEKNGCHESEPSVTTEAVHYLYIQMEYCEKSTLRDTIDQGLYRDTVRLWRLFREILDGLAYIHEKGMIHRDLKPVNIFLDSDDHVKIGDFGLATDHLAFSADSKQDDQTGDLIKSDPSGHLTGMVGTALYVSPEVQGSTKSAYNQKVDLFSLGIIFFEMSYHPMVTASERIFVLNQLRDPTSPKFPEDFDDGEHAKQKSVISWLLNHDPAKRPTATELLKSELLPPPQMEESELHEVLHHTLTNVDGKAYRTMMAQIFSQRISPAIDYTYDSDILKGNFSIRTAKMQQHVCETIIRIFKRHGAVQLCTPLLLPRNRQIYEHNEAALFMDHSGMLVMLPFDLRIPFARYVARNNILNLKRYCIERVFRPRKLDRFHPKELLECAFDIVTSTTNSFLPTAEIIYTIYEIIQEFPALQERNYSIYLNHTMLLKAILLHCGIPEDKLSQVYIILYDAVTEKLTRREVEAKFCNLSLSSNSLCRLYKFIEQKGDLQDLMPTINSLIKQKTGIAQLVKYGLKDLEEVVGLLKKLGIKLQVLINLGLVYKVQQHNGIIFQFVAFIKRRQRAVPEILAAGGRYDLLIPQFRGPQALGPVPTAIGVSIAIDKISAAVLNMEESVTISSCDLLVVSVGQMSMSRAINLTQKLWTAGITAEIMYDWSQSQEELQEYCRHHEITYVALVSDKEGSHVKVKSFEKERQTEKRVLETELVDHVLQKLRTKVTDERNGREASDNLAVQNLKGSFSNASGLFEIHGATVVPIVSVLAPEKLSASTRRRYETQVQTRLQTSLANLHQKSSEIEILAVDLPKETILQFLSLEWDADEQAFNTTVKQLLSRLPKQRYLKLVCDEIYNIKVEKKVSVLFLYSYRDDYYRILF

CC(=O)Nc1ccc(-n2nnc3cnc(Nc4cnn(C[C@@H]5C[C@H]5CO)c4)nc32)cn1 (relative stereo) [Compound A59, N-(5-{5-[1-((trans)-2-hydroxymethyl-cyclopropylmethyl)-1H-pyrazol-4-ylamino]-[1,2,3]triazolo[4,5-d]pyrimidin-3-yl}-pyridin-2-yl)-acetamide] and Nc1ccc(-n2nnc3cnc(Nc4cnn(C[C@@H]5C[C@H]5CO)c4)nc32)cn1 (relative stereo) [Compound A60, ((trans)-2-{4-[3-(6-amino-pyridin-3-yl)-3H-[1,2,3]triazolo[4,5-d]pyrimidin-5-ylamino]-pyrazol-1-ylmethyl}-cyclopropyl)-methanol] fall in the same range of IC50: 0.3 to 3 µM for the first, 0.3 to 3 µM for the second.

OC[C@@H]1C[C@H]1Cn1cc(Nc2ncc3nnn(-c4ccc5nccnc5c4)c3n2)cn1 (relative stereo) [Compound A104, {(trans)-2-[4-(3-quinoxalin-6-yl-3H-[1,2,3]triazolo[4,5-d]pyrimidin-5-ylamino)-pyrazol-1-ylmethyl]-cyclopropyl}-methanol] and COCCCn1cc(Nc2ncc3nnn(-c4ccc(Cl)c(F)c4)c3n2)cn1 [Compound A50, [3-(4-chloro-3-fluoro-phenyl)-3H-[1,2.3]triazolo[4,5-d]pyrimidin-5-yl]-[1-(3-methoxy-propyl)-1H-pyrazol-4-yl]-amine] cannot be ordered by IC50: under 0.3 µM for the first, under 0.3 µM for the second.

First: COc1ccc(-n2nnc3cnc(Nc4ccn(C)n4)nc32)cc1 [Compound A2, [3-(4-methoxy-phenyl)-3H-[1,2,3]triazolo[4,5-d]pyrimidin-5-yl]-(1-methyl-1H-pyrazol-3-yl)-amine]
Second: COc1ccc(-n2nnc3cnc(Nc4cnn(C)c4)nc32)cc1 [Compound A18, [3-(4-methoxy-phenyl)-3H-[1,2,3]triazolo[4,5-d]pyrimidin-5-yl]-(1-methyl-1H-pyrazol-4-yl)-amine]
The IC50 of the first is higher: 3 to 50 µM for the first, under 0.3 µM for the second. The second is the more potent here.

CCOc1ccc(-n2nnc3cnc(Nc4cn[nH]c4)nc32)cc1 [Compound A5, [3-(4-ethoxy-phenyl)-3H-[1,2,3]triazolo[4,5-d]pyrimidin-5-yl]-(1H-pyrazol-4-yl)-amine] and CCOc1ccc(-n2nnc3cnc(Nc4cnn(C5CCNCC5)c4)nc32)cc1 [Compound A7, [3-(4-Ethoxy-phenyl)-3H-[1,2,3]triazolo[4,5-d]pyrimidin-5-yl]-(1-piperidin-4-yl-1H-pyrazol-4-yl)-amine] cannot be ordered by IC50: under 0.3 µM for the first, under 0.3 µM for the second.

Compared with COCCCn1cc(Nc2ncc3nnn(-c4ccc(OC)cc4)c3n2)cn1 [Compound A9, [3-(4-methoxy-phenyl)-3H-[1,2,3]triazolo[4,5-d]pyrimidin-5-yl]-[1-(3-methoxy-propyl)-1H-pyrazol-4-yl]-amine], COc1ccc(-n2nnc3cnc(Nc4cnn(CCN5CCCC5)c4)nc32)cc1 [Compound A14, [3-(4-methoxy-phenyl)-3H-[1,2,3]triazolo[4,5-d]pyrimidin-5-yl]-[1-(2-pyrrolidin-1-yl-ethyl)-1H-pyrazol-4-yl]-amine] is lower in IC50: 0.3 to 3 µM for the first, under 0.3 µM for the second.

Compared with COc1ccc(-n2nnc3cnc(Nc4cnn(Cc5ccccc5)c4)nc32)cc1 [Compound A10, (1-benzyl-1H-pyrazol-4-yl)-[3-(4-methoxy-phenyl)-3H-[1,2,3]triazolo[4,5-d]pyrimidin-5-yl]-amine], COc1ccc(-n2nnc3cnc(Nc4cnn(C5CCOCC5)c4)nc32)cc1 [Compound A13, [3-(4-methoxy-phenyl)-3H-[1,2,3]triazolo[4,5-d]pyrimidin-5-yl]-[1-(tetrahydro-pyran-4-yl)-1H-pyrazol-4-yl]-amine] is lower in IC50: 3 to 50 µM for the first, under 0.3 µM for the second. The second is the more potent here.

COc1ccc(-n2nnc3cnc(/N=C4/N=C(C)CO4)nc32)cc1 [Compound A12, [3-(4-methoxy-phenyl)-3H-[1,2,3]triazolo[4,5-d]pyrimidin-5-yl]-[4-methyl-5H-oxazol-(2Z)-ylidene]-amine] and COc1ccc(-n2nnc3cnc(Nc4ncn[nH]4)nc32)cc1 [Compound A17, [3-(4-methoxy-phenyl)-3H-[1,2,3]triazolo[4,5-d]pyrimidin-5-yl]-(2H-[1,2,4]triazol-3-yl)-amine] fall in the same range of IC50: 3 to 50 µM for the first, 3 to 50 µM for the second.

CCOc1ccc(-n2nnc3cnc(Nc4cnn(C5CCOCC5)c4)nc32)cc1 [Compound A15, [3-(4-ethoxy-phenyl)-3H-[1,2,3]triazolo[4,5-d]pyrimidin-5-yl]-[1-(tetrahydro-pyran-4-yl)-1H-pyrazol-4-yl]-amine] and Fc1ccc(-n2nnc3cnc(Nc4cnn(C5CCOCC5)c4)nc32)cc1 [Compound A20, [3-(4-fluoro-phenyl)-3H-[1,2,3]triazolo[4,5-d]pyrimidin-5-yl]-[1-(tetrahydro-pyran-4-yl)-1H-pyrazol-4-yl]-amine] cannot be ordered by IC50: under 0.3 µM for the first, under 0.3 µM for the second.

First: CCOc1ccc(-n2nnc3cnc(Nc4cnn([C@H]5CC[C@@H](O)CC5)c4)nc32)cc1 [Compound A19, 4-{4-[3-(4-ethoxy-phenyl)-3H-[1,2,3]triazolo[4,5-d]pyrimidin-5-ylamino]-pyrazol-1-yl}-cyclohexanol]
Second: CCCCOc1ccc(-n2nnc3cnc(Nc4cnn(C5CCOCC5)c4)nc32)cn1 [Compound A47, [3-(6-butoxy-pyridin-3-yl)-3H-[1,2,3]triazolo[4,5-d]pyrimidin-5-yl]-[1-(tetrahydro-pyran-4-yl)-1H-pyrazol-4-yl]-amine]
The IC50 of the first is lower: under 0.3 µM for the first, 0.3 to 3 µM for the second.

First: Cn1cc(Nc2ncc3nnn(-c4cnn(C)c4)c3n2)cn1 [Compound A21, (1-methyl-1H-pyrazol-4-yl)-[3-(1-methyl-1H-pyrazol-4-yl)-3H-[1,2,3]triazolo[4,5-d]pyrimidin-5-yl]-amine]
Second: CCCCOc1ccc(-n2nnc3cnc(Nc4cnn(C5CCN(C)CC5)c4)nc32)cn1 [Compound A45, [3-(6-butoxy-pyridin-3-yl)-3H-[1,2,3]triazolo[4,5-d]pyrimidin-5-yl]-[1-(1-methyl-piperidin-4-yl)-1H-pyrazol-4-yl]-amine]
The IC50 of the first is lower: under 0.3 µM for the first, 0.3 to 3 µM for the second. The first is the more potent here.

COc1ccc(-n2nnc3cnc(Nc4nc(-c5ccc(NC(C)=O)cc5)cs4)nc32)cc1 [Compound A42, N-[4-[2-[[3-(4-methoxyphenyl)triazolo[4,5-d]pyrimidin-5-yl]amino]thiazol-4-yl]phenyl]acetamide] and CC(C)(C)OCCn1cc(Nc2ncc3nnn(-c4ccc(Cl)c(F)c4)c3n2)cn1 [Compound A53, [1-(2-tert-butoxy-ethyl)-1H-pyrazol-4-yl]-[3-(4-chloro-3-fluoro-phenyl)-3H-[1,2,3]triazolo[4,5-d]pyrimidin-5-yl]-amine] fall in the same range of IC50: 0.3 to 3 µM for the first, 0.3 to 3 µM for the second.

O=C1CCCN1c1ccc(-n2nnc3cnc(Nc4cnn(C5CCOCC5)c4)nc32)cc1 [Compound A43, 1-[4-[5-[(1-tetrahydropyran-4-ylpyrazol-4-yl)amino]triazolo[4,5-d]pyrimidin-3-yl]phenyl]pyrrolidin-2-one] and CN1CCC(n2cc(Nc3ncc4nnn(-c5cnc6ccccc6c5)c4n3)cn2)CC1 [Compound A52, [1-(1-methyl-piperidin-4-yl)-1H-pyrazol-4-yl]-(3-quinolin-3-yl-3H-[1,2,3]triazolo[4,5-d]pyrimidin-5-yl)-amine] cannot be ordered by IC50: under 0.3 µM for the first, under 0.3 µM for the second.

Work on CCCCOc1ccc(-n2nnc3cnc(Nc4cnn(CCC5CCNCC5)c4)nc32)cn1 [Compound A55, [3-(6-butoxy-pyridin-3-yl)-3H-[1,2,3]triazolo[4,5-d]pyrimidin-5-yl]-[1-(2-piperidin-4-yl-ethyl)-1H-pyrazol-4-yl]-amine] yielded an IC50 of 0.3 to 3 µM.
